Experimental data reported in BindingDB's records for doi:10.1016/j.bioorg.2016.07.008 (Universiti Teknologi Mara, 2016).
pIC50: −log10 of the molar value.

The molecules below were run against T1, Beta-glucuronidase (Homo sapiens, UniProt P08236) (assay: β-Glucuronidase Bioassay).
T1 sequence (P08236 whole entry): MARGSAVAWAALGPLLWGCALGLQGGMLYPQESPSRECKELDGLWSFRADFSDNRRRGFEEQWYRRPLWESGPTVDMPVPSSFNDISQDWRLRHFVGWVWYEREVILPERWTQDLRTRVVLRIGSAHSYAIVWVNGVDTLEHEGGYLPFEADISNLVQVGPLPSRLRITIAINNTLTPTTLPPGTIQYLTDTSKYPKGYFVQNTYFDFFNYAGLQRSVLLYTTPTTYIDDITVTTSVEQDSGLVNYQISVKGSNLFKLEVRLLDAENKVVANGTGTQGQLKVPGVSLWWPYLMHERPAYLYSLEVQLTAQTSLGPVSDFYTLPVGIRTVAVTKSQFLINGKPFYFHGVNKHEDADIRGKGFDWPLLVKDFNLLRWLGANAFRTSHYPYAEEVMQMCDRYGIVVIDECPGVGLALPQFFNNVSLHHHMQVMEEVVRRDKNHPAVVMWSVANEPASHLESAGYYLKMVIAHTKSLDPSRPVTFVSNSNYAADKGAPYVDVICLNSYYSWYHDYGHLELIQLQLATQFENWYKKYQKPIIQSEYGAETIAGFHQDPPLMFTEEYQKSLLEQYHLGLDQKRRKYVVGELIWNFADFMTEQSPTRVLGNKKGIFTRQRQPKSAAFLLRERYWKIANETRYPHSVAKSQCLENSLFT
Procedure: The total reaction volume was 250 µL. The reaction mixture contained 185 µL of 0.1 M acetate buffer, 5 µL of test compound solution, 10 µL of enzyme solution was incubated at 37 °C for 30 min. […] All assays were run in triplicate.

Row | Structure (SMILES) | pIC50
1 | COc1ccccc1NC(=S)NNC(=O)c1ccc(C(c2c[nH]c3ccccc23)c2c[nH]c3ccccc23)cc1 [2-(4-(Di(1H-indol-3-yl)methyl)benzoyl)-N-(2-methoxyphenyl)hydrazinecarbothioamide (18)] | 5.03
2 | COc1ccc(NC(=S)NNC(=O)c2ccc(C(c3c[nH]c4ccccc34)c3c[nH]c4ccccc34)cc2)cc1 [2-(4-(Di(1H-indol-3-yl)methyl)benzoyl)-N-(4-methoxyphenyl)hydrazinecarbothioamide (9)] | 4.94
3 | O=C(NNC(=S)Nc1ccc([N+](=O)[O-])cc1)c1ccc(C(c2c[nH]c3ccccc23)c2c[nH]c3ccccc23)cc1 [2-(4-(Di(1H-indol-3-yl)methyl)benzoyl)-N-(4-nitrophenyl)hydrazinecarbothioamide (10)] | 4.92
4 | Cc1ccc(NC(=S)NNC(=O)c2ccc(C(c3c[nH]c4ccccc34)c3c[nH]c4ccccc34)cc2)cc1 [2-(4-(Di(1H-indol-3-yl)methyl)benzoyl)-N-(p-tolyl)hydrazinecarbothioamide (5)] | 4.82
5 | O=C(NNC(=S)Nc1cccc(Br)c1)c1ccc(C(c2c[nH]c3ccccc23)c2c[nH]c3ccccc23)cc1 [N-(3-Bromophenyl)-2-(4-(di(1H-indol-3-yl)methyl)benzoyl)hydrazinecarbothioamide (13)] | 4.67
6 | O=C(NNC(=S)Nc1ccc(Br)cc1)c1ccc(C(c2c[nH]c3ccccc23)c2c[nH]c3ccccc23)cc1 [N-(4-Bromophenyl)-2-(4-(di(1H-indol-3-yl)methyl)benzoyl)hydrazinecarbothioamide (7)] | 4.48

Continued, values first:

Row | pIC50 | Structure (SMILES)
7 | 4.55 | COc1cccc(NC(=S)NNC(=O)c2ccc(C(c3c[nH]c4ccccc34)c3c[nH]c4ccccc34)cc2)c1 [2-(4-(Di(1H-indol-3-yl)methyl)benzoyl)-N-(3-methoxyphenyl)hydrazinecarbothioamide (15)]
8 | 4.83 | Cc1cccc(NC(=S)NNC(=O)c2ccc(C(c3c[nH]c4ccccc34)c3c[nH]c4ccccc34)cc2)c1 [2-(4-(Di(1H-indol-3-yl)methyl)benzoyl)-N-(m-tolyl)hydrazinecarbothioamide (11)]
